Assay results taken from US20210267996A1, “Compounds for inhibition of inflammation” (Children`s Medical Center Corporation, priority 2018, published 2021).
“Also recorded” adds a separate entry of the source.

Columns and labels:
IL-1β = IL-1β secretion by ELISA, iBMDM with LPS transfection; assay type: cell-based, mouse; settings: 40 μM
Experimental: Measurement of cytokines: concentrations of IL-1 (3 in culture supernatants or mouse serum were measured by ELISA kit (R&D Systems) according to the manufacturer's instructions. […] The number of surviving cells was determined by CellTiter-Glo assay (FIGS. 4 and 6) and IL-1β in culture supernatants was assessed by ELISA (FIG. 8) 2 hrs later. […] The number of surviving cells was determined by CellTiter-Glo assay (FIGS. 5 and 7) and IL-1β in culture supernatants was assessed by ELISA (FIG. 9) 2.5 hrs later.

mouse GSDMA3-3C = target: T1, mouse GSDMA3-3C (Mus musculus, UniProt Q5Y4Y6); test: Liposome leakage assay, GSDMA3-3C plus 3C protease; assay type: biochemical; settings: read-out: IC50 of liposome leakage; 3C-cleaved GSDMA3-3C
T1 construct: other: 3C-cleaved GSDMA3-3C; Human GSDMD-3C and mouse GSDMA3-3C mutants were constructed by QuikChange Mutagenesis (Agilent Technologies); fused on or other part: His6-MBP tag, removed by TEV before use; The engineered 3C site is cut by 3C protease, so the N-terminal pore-forming fragment is set free in the well
T1 sequence (Q5Y4Y6 with tags, fused parts or gaps INS262LEVLFQGP, form open): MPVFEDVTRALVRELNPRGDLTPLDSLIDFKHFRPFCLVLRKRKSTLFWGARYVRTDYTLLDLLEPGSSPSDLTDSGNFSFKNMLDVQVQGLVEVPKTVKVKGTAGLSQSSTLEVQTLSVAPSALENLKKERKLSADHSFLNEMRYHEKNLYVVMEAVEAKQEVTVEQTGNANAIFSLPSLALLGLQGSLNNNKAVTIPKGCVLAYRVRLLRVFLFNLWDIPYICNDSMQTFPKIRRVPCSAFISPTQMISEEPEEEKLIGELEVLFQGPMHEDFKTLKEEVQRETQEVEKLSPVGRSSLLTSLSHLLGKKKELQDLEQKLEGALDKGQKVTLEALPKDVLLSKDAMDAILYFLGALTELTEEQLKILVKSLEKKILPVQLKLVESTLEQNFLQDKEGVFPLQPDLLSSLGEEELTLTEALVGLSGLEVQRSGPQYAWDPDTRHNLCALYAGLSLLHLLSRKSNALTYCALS

HEK293T cells = test: LDH release of HEK293T cells expressing caspase-11 and GSDMD; assay type: cell-based
Experimental: FIG. 72 contains a bar graph showing results of an experiment when FL human WT or C191S GSDMD were co-expressed with caspase-11 in HEK293T cells. 8 h post transfection, the indicated amount of disulfiram was added and cell death was determined by LDH release 12 h later.
(§1) Cytotoxicity and cell viability assays: cell death and cell viability were determined by the lactate dehydrogenase release assay using the CytoTox 96 Non-Radioactive Cytotoxicity Assay kit (Promega) and by measuring ATP levels using the CellTiter-Glo Luminescent Cell Viability Assay (Promega), respectively, according to the manufacturer's instructions. Luminescence and absorbance were measured on a BioTek Synergy 2 plate reader.
To further confirm that disulfiram acts on Cys191, disulfiram inhibition of LDH release in HEK293T cells expressing caspase-11 and WT or C191S GSDMD was assessed.

[1] = target: T2, Alexa 488-labeled His-MBP-GSDMD (Homo sapiens, UniProt P57764); test: Microscale thermophoresis (MST) binding assay
T2 construct: made in house; host or cells: E. coli BL21 (DE3)
T2 sequence (P57764 whole entry): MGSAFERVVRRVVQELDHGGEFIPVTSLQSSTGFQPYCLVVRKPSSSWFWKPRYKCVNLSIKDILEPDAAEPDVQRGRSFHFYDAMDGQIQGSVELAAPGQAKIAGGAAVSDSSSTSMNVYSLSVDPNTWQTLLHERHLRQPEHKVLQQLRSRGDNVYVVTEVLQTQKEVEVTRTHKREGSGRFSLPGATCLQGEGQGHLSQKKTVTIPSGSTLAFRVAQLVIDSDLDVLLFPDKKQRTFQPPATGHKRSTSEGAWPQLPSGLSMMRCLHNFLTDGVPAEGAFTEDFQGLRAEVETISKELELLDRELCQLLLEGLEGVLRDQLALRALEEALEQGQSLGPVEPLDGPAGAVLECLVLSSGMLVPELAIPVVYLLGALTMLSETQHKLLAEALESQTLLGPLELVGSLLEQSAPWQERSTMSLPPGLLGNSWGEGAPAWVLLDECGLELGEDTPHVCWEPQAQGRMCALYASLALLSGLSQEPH
Experimental: Fluorescent protein labelling and microscale thermophoresis binding assay: His6-MBP-GSDMD was labeled with AlexaFluor-488 using the Molecular Probes protein labelling kit. Binding of inhibitors to GSDMD was evaluated using microscale thermophoresis (MST). Ligands (49 nM-150 μM) were incubated with purified AlexaFluor-488-labeled protein (80 nM) for 30 min in assay buffer (20 mM HEPES, 150 mM NaCl, 0.05% Tween 20). The sample was loaded into NanoTemper Monolith NT. 115 glass capillaries and MST carried out using 20% LED power and 40% MST power. Kd values were calculated using the mass action equation and NanoTemper software.
The test compounds were assessed for GSDMD binding by microscale thermophoresis (MST).

THP-1 cells = test: Canonical inflammasome pyroptosis, LPS-primed THP-1 cells plus nigericin; assay type: cell-based, human; settings: THP-1, nigericin
Experimental: Cell viability assay. […] Primed THP-1 cells were pretreated with each test compound for 1 hr before addition of 20 μM nigericin or medium as control. The number of surviving cells was determined by CellTiter-Glo assay 1.5 hrs later. The final percent cell viability was calculated using the formula [(luminescencetest compound−luminescencencenegative control)/(luminescencencepositive control−luminescencenegative control)]×100, where wells with only LPS were used as positive controls and wells treated with LPS and nigericin were used as negative controls.
In FIGS. 4, 6, and 8, PMA-differentiated LPS-primed human THP-1 were pre-treated with indicated concentrations of each compound for 1 h before adding nigericin or medium. The number of surviving cells was determined by CellTiter-Glo assay (FIGS. 4 and 6) and IL-1β in culture supernatants was assessed by ELISA (FIG. 8) 2 hrs later. […] In FIGS. 8 and 9, 40 μM concentration of test compounds were added. […] Graphs show the mean±s.d. and data shown are representative of three independent experiments. **P<0.01.

mouse iBMDMs [2] = test: Non-canonical inflammasome pyroptosis, iBMDMs with LPS electroporation; assay type: cell-based
Experimental: Cell lines and treatments: THP-1 cells and HEK293T cells (obtained from ATCC) were grown in RPMI with 10% heat-inactivated fetal bovine serum, supplemented with 100 U/ml penicillin G, 100 μg/ml streptomycin sulfate, 6 mM HEPES, 1.6 mM L-glutamine, and 50 μM 2ME. C57BL/6 mouse iBMDM cells were kindly provided by J. Kagan (Boston Children's Hospital) and cultured in DMEM with the same supplements. Cells were verified to be free of mycoplasma contamination. Transient transfection of HEK293T cells was performed using Lipofectamine 2000 (Invitrogen) according to the manufacturer's instructions. iBMDM cells were transfected by nucleofection using the Amaxa Nucleofector kit (VPA-1009). […] To examine IκBα. phosphorylation and degradation as well as IL-1β induction, PMA-differentiated THP-1 cells were stimulated with LPS (1 μg/ml) for 0.5, 1 and 4 hrs, respectively. For noncanoical inflammasome activation, 1 million iBMDM cells were electroporated with 1 μg ultra LPS.
as §1
In FIGS. 4, 6, and 8, PMA-differentiated LPS-primed human THP-1 were pre-treated with indicated concentrations of each compound for 1 h before adding nigericin or medium. The number of surviving cells was determined by CellTiter-Glo assay (FIGS. 4 and 6) and IL-1β in culture supernatants was assessed by ELISA (FIG. 8) 2 hrs later. In FIGS. 5, 7, and 9, mouse iBMDMs were pre-treated with each test compound for 1 hr before electroporation with PBS or LPS. The number of surviving cells was determined by CellTiter-Glo assay (FIGS. 5 and 7) and IL-1β in culture supernatants was assessed by ELISA (FIG. 9) 2.5 hrs later. In FIGS. 8 and 9, 40 μM concentration of test compounds were added.

mouse iBMDMs [3] = test: Processing of caspase-1, GSDMD and IL-1β in iBMDMs (immunoblot); assay type: cell-based; settings: 1 hr time point
Experimental: (§2) FIG. 97 contains a bar graph showing results of an experiment where LPS-primed THP-1 cells, after medium removal, were incubated with probe FAM-YVAD-FMK in FLICA assay buffer for another 0.5 hr before fluorescence reading. iBMDMs were pretreated with disulfiram, Bay 11-7082, necrosulfonamide (NSA) or z-VAD-fmk for 1 hr before treated or not with Nigericin for 0.5 hr. Whole cell lysates and culture supernatants were immunoblotted with the indicated antibodies.
as §2, with “FIG. 98” for “FIG. 97”, “for 1” for “for 0.5”
Canonical inflammasome assembly activates caspase-1, which cleaves pro-IL-1β and GSDMD, and the latter is needed to release processed IL-1β and to induce pyroptosis. To assess which steps in NLRP3-mediated inflammation were inhibited post ASC speck formation, LPS-primed THP-1 cells were treated with vehicle, 30 μM z-VAD-fmk or disulfiram 1 hour before adding nigericin, and cleavage and activation of caspase-1, GSDMD, and pro-IL-1β were analysed by immunoblot of whole cell lysates 30 min later and 1 hr later. Secretion of processed IL-1β was also assessed by immunoblot of culture supernatants. […] The 1 hr time point is relevant as the cell death and IL-1β release measurements used cells stimulated with nigericin for 1 and 2 hrs, respectively.

SMILES | LPS transfection-induced IL-1β secretion (IL-1β) | IC50 (mouse GSDMA3-3C) | C191S GSDMD-induced cell death (LDH release) (HEK293T cells; caspase-11 plus C191S GSDMD) | WT GSDMD-induced cell death (LDH release) (HEK293T cells; caspase-11 plus WT GSDMD) | binding to GSDMD according to MST [1] | inhibition of canonical inflammasome pyroptosis (THP-1 cells) | inhibition of non-canonical inflammasome pyroptosis (mouse iBMDMs [2]) | processing of caspase-1, GSDMD and IL-1β (mouse iBMDMs [3])
CCN(CC)C(=S)SSC(=S)N(CC)CC [C-23, Tetraethylthiuram disulfide] | potency comparable to the pan-caspase inhibitor z-VAD-fmk | 12.1 ± 2.1 µM | only inhibited when 4 times as much disulfiram was added | strongly inhibited |  |  |  | 
Cc1ccc(S(=O)(=O)/C=C/C#N)cc1 [Bay 11-7082] |  |  |  |  | bound to GSDMD; also recorded: lower affinity | also inhibits the canonical inflammasome pathway; also recorded: more effective at inhibiting canonical inflammasome-dependent pyroptosis than disulfiram in the absence of copper | less active than disulfiram | still inhibited processing
